Here are results for 5 compounds from patent US20240368125A1, “NOVEL PYRAZINYL-TRIAZOLE COMPOUNDS AS PESTICIDES” (Bayer Aktiengesellschaft, priority 2021, published 2024).

Broadly, the mortality is the percentage killed.

Holding throughout (assay type): in vivo
The test system of assay [1] is brown planthopper (Nilaparvata lugens). Description: Nilaparvata lugens spray test. To be noted: Nilaparvata lugens, in Oryza sativa, 96 h. In a few lines: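 Compound dissolved in acetone/dimethylformamide and diluted in water with 1000 ppm alkylarylpolyglycol ether emulsifier. Rice plants sprayed at the test concentration, then infested with brown planthopper; % mortality read after 4 days (100% = all killed, 0% = none).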

Assay [2] deals with green peach aphid (Myzus persicae). Description: Myzus persicae spray test (MYZUPE). To be noted: in Brassica rapa, foliar, 120 h. A digest of the protocol:
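Chinese cabbage leaf disks infested with all instars of M. persicae sprayed with compound (acetone/DMF solvent, water with 1000 ppm alkylarylpolyglycol ether emulsifier) at the desired concentration. Percent mortality determined after 5 days; 100% = all aphids killed.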

In assay [3] the test system is Rhipicephalus (Boophilus) microplus larvae (strain Parkhurst, resistant against synthetic pyrethroids). Briefly: Rhipicephalus (Boophilus) microplus in-vitro contact test, larval cattle tick. To be noted: Rhipicephalus microplus; 1 μg/cm^2 (=100 g/ha), after 48 hours; read-out: efficacy (larvae dead or moribund). In a few lines:
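Compound in acetone coated on glass tube inner walls; 900 ppm solution gives 5 μg/cm^2. Pyrethroid-resistant Parkhurst larvae (20-50 per tube) held at 27° C., 85% relative humidity; efficacy assessed after 48 h by scoring negative geotactic behavior after tapping larvae to tube bottom.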

In assay [4] the test system is adult mosquitoes Culex quinquefasciatus strain P00. Description: Culex quinquefasciatus test (CULXFA surface treatment & contact assay). The following applies: 24 hours after contact, read-out: efficacy (mortality); for mortality at 20 mg/m2: surface concentration 20 mg/m^2, 30 min exposure; for mortality at 4 mg/m2: surface concentration 4 mg/m^2, 30 min exposure. As to the method: Culex quinquefasciatus Test (CULXFA Surface Treatment & Contact Assay
(§1) Solvent: Aceton+2000 ppm rapeseed oil methyl ester (RME)
In order to produce a sufficient, active ingredient containing solution it is necessary to solve the test compound in the solvent-mix (acetone at 2 mg/ml/RME 2000 ppm). This solution is pipetted onto a glazed tile and after evaporation of the acetone, adult mosquitoes of the species Culex quinquefasciatus strain P00 are placed onto the dried surface. The exposure time is 30 minutes. Mortality in percent (%) is determined 24 hours after contact of the insects to the treated surface. 100% mortality means that all tested insects are dead, whereas 0% means that no insect died.

Assay [5] concerns adult flies Musca domestica strain WHO-N. Briefly: Musca domestica test (MUSCDO surface treatment & contact assay). To be noted: 24 hours after contact, read-out: efficacy (mortality); for mortality at 20 mg/m2: surface concentration 20 mg/m^2, 30 min exposure; for mortality at 4 mg/m2: surface concentration 4 mg/m^2, 30 min exposure. As to the method:
Musca domestica Test (MUSCDO Surface Treatment & Contact Assay
as §1
In order to produce a sufficient, active ingredient containing solution it is necessary to solve the test compound in the solvent-mix (acetone at 2 mg/ml/RME 2000 ppm). This solution is pipetted onto a glazed tile and after evaporation of the acetone, adult flies of the species Musca domestica strain WHO-N are placed onto the dried surface. The exposure time is 30 minutes. Mortality in percent (%) is determined 24 hours after contact of the insects to the treated surface. 100% mortality means that all tested insects are dead, whereas 0% means that no insect died.

Assay [6] relates to adult unfed cat fleas (Ctenocephalides felis). Description: Ctenocephalides felis oral test. To be noted: 48 h, 100 ppm in citrated cattle blood, after 2 days. As to the method:
Ctenocephalides felis—Oral Test
(§2) Solvent: Dimethyl Sulfoxide
To produce a suitable preparation of active compound, 10 mg of active compound are dissolved in 0.5 mL solvent, and the concentrate is diluted with citrated cattle blood to the desired concentration.
Approximately 20 adult unfed cat fleas (Ctenocephalides felis) are placed in a flea chamber whose top and bottom is covered with gauze. A chamber whose bottom is sealed with parafilm, is filled with the blood-compound solution and placed on top of the flea chamber, so that the fleas can suck the blood. The blood chamber is heated to 37° C. whereas the flea chamber is kept at room temperature.
After 2 days mortality in % is determined. 100% means all the fleas have been killed; 0% means none of the fleas have been killed.

The subject of assay [7] is adult Blattella germanica strain PAULINIA
Description: Blattella germanica test (BLTTGE surface treatment & contact assay). To be noted: 24 hours after contact, read-out: efficacy (mortality); for mortality at 20 mg/m2: surface concentration 20 mg/m^2, 30 min exposure; for mortality at 4 mg/m2: surface concentration 4 mg/m^2, 30 min exposure. As to the method: Blattella germanica Test (BLTTGE Surface Treatment & Contact Assay
as §1
In order to produce a sufficient, active ingredient containing solution it is necessary to solve the test compound in the solvent-mix (acetone at 2 mg/ml/RME 2000 ppm). This solution is pipetted onto a glazed tile and after evaporation of the acetone, adult animals of the species Blattella germanica strain PAULINIA are placed onto the dried surface. The exposure time is 30 minutes.
Mortality in percent (%) is determined 24 hours after contact of the insects to the treated surface. 100% mortality means that all tested insects are dead, whereas 0% means that no insect died.

The test system of assay [8] is adult engorged female ticks (Rhipicephalus microplus). Description: Rhipicephalus (Boophilus) microplus injection test. The following applies: 4 μg/tick, after 7 days. As to the method:
Rhipicephalus (Boophilus) Microplus—Injection Test
as §2
To produce a suitable preparation of active compound, 10 mg of active compound are dissolved in 0.5 mL solvent, and the concentrate is diluted with solvent to the desired concentration.
Five adult engorged female ticks (Rhipicephalus microplus) are injected with 1 μL compound solution into the abdomen. The ticks are transferred into replica plates and incubated in a climate chamber.
After 7 days egg deposition of fertile eggs is monitored. Eggs where fertility is not visible are stored in a climate chamber till hatching after about 42 days. An efficacy of 100% means all eggs are infertile; 0% means all eggs are fertile.

Structures are written as SMILES.

Regarding `C[C@H](NC(=O)c1cc(OC(F)(F)F)cc(C2CC2)c1)c1ncnn1-c1cnc(C(=O)N(C)C)cn1` [Example I-002], in assay [1], the mortality at 500 g/ha was determined as 90%. The compound also came in with a mortality at 100 g/ha in assay [2] of 90%. Also, the pest or weed control at 1 µg/cm2 in assay [3] was 100%. Moreover, the mortality at 20 mg/m2 in assay [4], in assay [5] and in assay [7] was 80 to 100% throughout. The mortality at 100 ppm in assay [6] came to 100%. Also, the “efficacy (infertile eggs)” value in assay [8] came to 100%.
In the case of `C[C@H](NC(=O)c1cc(C(F)(F)F)cc(C(F)(F)F)c1)c1ncnn1-c1cnc(C(=O)N(C)C2CC2)cn1` [Example I-007], the mortality at 500 g/ha in assay [1] was 100%. This compound had a mortality at 100 g/ha in assay [2] of 90%. In addition, the pest or weed control at 1 µg/cm2 in assay [3] came out at 100%. Further, the mortality at 4 mg/m2 in assay [4], in assay [5] and in assay [7] was 80 to 100% in each case. In addition, the mortality at 20 mg/m2 in assay [4], in assay [5] and in assay [7] was 80 to 100% in each case. This compound also returned a mortality at 100 ppm in assay [6] of 100%. The “efficacy (infertile eggs)” value in assay [8] was determined as 100%.
Compound `C[C@H](NC(=O)c1cc(C(F)(F)F)cc(C(F)(F)F)c1)c1ncnn1-c1cnc(C(=O)N(C)CC2CC2)cn1` [Example I-008] had a mortality at 500 g/ha in assay [1] of 100%. Further, the mortality at 100 g/ha in assay [2] was found to be 90%. Also, the pest or weed control at 1 µg/cm2 in assay [3] was 100%. Also, the mortality at 4 mg/m2 in assay [4], in assay [5] and in assay [7] was 80 to 100% each time. Also, the mortality at 20 mg/m2 in assay [4], in assay [5] and in assay [7] was 80 to 100% each time. The compound also gave a mortality at 100 ppm in assay [6] of 100%. Also, the “efficacy (infertile eggs)” value in assay [8] was found to be 100%.
As for `CNC(=O)c1cnc(-n2ncnc2[C@H](C)NC(=O)c2cc(C(F)(F)F)cc(C(F)(F)F)c2)cn1` [Example I-009], the mortality at 500 g/ha in assay [1] was found to be 100%. For the same compound, the mortality at 100 g/ha in assay [2] was found to be 90%. Besides, in assay [3], the pest or weed control at 1 µg/cm2 was 100%. The mortality at 4 mg/m2 in assay [4], in assay [5] and in assay [7] was 80 to 100% throughout. For the same compound, the mortality at 20 mg/m2 in assay [4], in assay [5] and in assay [7] was 80 to 100% in each case. In assay [6], this compound yielded a mortality at 100 ppm of 100%. Besides, the “efficacy (infertile eggs)” value in assay [8] is given as 100%.
Turning to `CNC(=O)c1cnc(-n2ncnc2[C@H](C)NC(=O)c2cc(OC(F)(F)F)cc(C3CC3)c2)cn1` [Example I-021], the mortality at 500 g/ha in assay [1] came to 100%. In assay [2], the mortality at 100 g/ha amounted to 90%. The pest or weed control at 1 µg/cm2 in assay [3] came out at 100%. The mortality at 4 mg/m2 in assay [4], in assay [5] and in assay [7] was 80 to 100% in each case. Moreover, the mortality at 20 mg/m2 in assay [4], in assay [5] and in assay [7] was 80 to 100% throughout.
